Results reported in the supplement of paper PMC10307832.

Compound: O=c1ncccn1[C@@H]1O[C@H](CO)[C@@H](O)[C@H]1O [Zebularine] + O=C(c1cc(Cc2n[nH]c(=O)c3ccccc23)ccc1F)N1CCN(C(=O)C2CC2)CC1 [Olaparib] (partner 8 µM)
Assay: relative viability (nuclei count vs DMSO), 5 days (fraction); higher = more cells survive
Conditions: first compound 1 µM
Summary of the method: (§1)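 For relative viability, nuclei counts in treated wells were divided by those in vehicle wells. Lung cancer cell lines had been pin-tool dosed in 1536-well plates the day after seeding and cultured for 5 days, then fixed and stained in one step (final 0.05% Triton X-100, 1% formaldehyde, 1 ug/ml Hoechst) and imaged at 4×. Doses were one drug alone or a fixed anchor-drug dose plus five library-drug doses (not always all listed) in √10 steps, and values are duplicate-plate medians.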

Cell Line | relative viability
NCI-H1944 | 0.449
NCI-H1975 | 0.84
RERF-LC-KJ | 0.989
ABC-1 | 0.782
NCI-H358 | 0.67
NCI-H650 | 0.351
PC-3 [JPC-3] | 1.18

Same assay, conditions: first compound 3.162 µM

Cell Line | relative viability
NCI-H1944 | 0.474
NCI-H1975 | 0.574
RERF-LC-KJ | 0.874
ABC-1 | 0.696
NCI-H358 | 0.597
NCI-H650 | 0.332
PC-3 [JPC-3] | 0.984

Same assay, conditions: first compound 10 µM

Cell Line | relative viability
NCI-H1944 | 0.366
NCI-H1975 | 0.277
RERF-LC-KJ | 0.655
ABC-1 | 0.666
NCI-H358 | 0.343
NCI-H650 | 0.307
PC-3 [JPC-3] | 0.675

Same assay, conditions: first compound 31.62 µM

Cell Line | relative viability
NCI-H1944 | 0.34
NCI-H1975 | 0.257
RERF-LC-KJ | 1.03
ABC-1 | 0.702
NCI-H358 | 0.295
NCI-H650 | 0.28
PC-3 [JPC-3] | 0.673

Same assay, conditions: first compound 100 µM

Cell Line | relative viability
NCI-H1944 | 0.246
NCI-H1975 | 0.251
RERF-LC-KJ | 0.845
ABC-1 | 0.522
NCI-H358 | 0.225
NCI-H650 | 0.177
PC-3 [JPC-3] | 0.593

Compound: O=c1ncccn1[C@@H]1O[C@H](CO)[C@@H](O)[C@H]1O [Zebularine] + CC(=O)c1c(C)c2cnc(Nc3ccc(N4CCNCC4)cn3)nc2n(C2CCCC2)c1=O [Palbociclib] (partner 0.5 µM)
Assay: as above
Conditions: first compound 1 µM
Summary of the method: as §1

Cell Line | relative viability
NCI-H1944 | 0.309
NCI-H1975 | 0.818
RERF-LC-KJ | 1.09
ABC-1 | 0.741
NCI-H358 | 0.213
NCI-H650 | 0.358
PC-3 [JPC-3] | 0.537

Same assay, conditions: first compound 3.162 µM

Cell Line | relative viability
NCI-H1944 | 0.353
NCI-H1975 | 0.596
RERF-LC-KJ | 1.01
ABC-1 | 0.485
NCI-H358 | 0.128
NCI-H650 | 0.376
PC-3 [JPC-3] | 0.535

Same assay, conditions: first compound 10 µM

Cell Line | relative viability
NCI-H1944 | 0.339
NCI-H1975 | 0.291
RERF-LC-KJ | 0.871
ABC-1 | 0.635
NCI-H358 | 0.134
NCI-H650 | 0.296
PC-3 [JPC-3] | 0.507

Same assay, conditions: first compound 31.62 µM

Cell Line | relative viability
NCI-H1944 | 0.36
NCI-H1975 | 0.317
RERF-LC-KJ | 1.3
ABC-1 | 0.589
NCI-H358 | 0.131
NCI-H650 | 0.263
PC-3 [JPC-3] | 0.605

Same assay, conditions: first compound 100 µM

Cell Line | relative viability
NCI-H1944 | 0.329
NCI-H1975 | 0.259
RERF-LC-KJ | 1.24
ABC-1 | 0.471
NCI-H358 | 0.132
NCI-H650 | 0.195
PC-3 [JPC-3] | 0.514
